Reference: ChEMBL document CHEMBL1201862, “PubChem BioAssay data set” (2004)
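1) Cells in 96-well plates. 2) Compound, 48 h, 5 concentrations. 3) Linear interpolation between surrounding doses. 4) Unreached endpoint = highest concentration. GI50: concentration for 50% inhibition of growth.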 Calls of active or inactive are those of the source. Rule as the data show it: active = GI50 up to about 1.1 µM and inactive = higher.

Tests used:
Assay in all cases: NCI-60 cell line screen, 48 h
ACHN = test system: ACHN
BT-549 = test system: BT-549
CAKI-1 = test system: CAKI-1
CCRF-CEM = test system: CCRF-CEM
DU-145 = test system: DU-145
HCC 2998 = test system: HCC 2998
HCT-116 = test system: HCT-116
HOP-92 = test system: HOP-92
Hs-578T = test system: Hs-578T
K562 = test system: K562
M14 = test system: M14
MDA-MB-231 = test system: MDA-MB-231
Malme-3M = test system: Malme-3M
NCI-H226 = test system: NCI-H226
NCI/ADR-RES = test system: NCI/ADR-RES
OVCAR-8 = test system: OVCAR-8
RXF 393 = test system: RXF 393
SF-539 = test system: SF-539
SK-MEL-28 = test system: SK-MEL-28
SN12C = test system: SN12C

| SMILES | GI50 (ACHN) | GI50 (BT-549) | GI50 (CAKI-1) | GI50 (CCRF-CEM) | GI50 (DU-145) | GI50 (HCC 2998) | GI50 (HCT-116) | GI50 (HOP-92) | GI50 (Hs-578T) | GI50 (K562) | GI50 (M14) | GI50 (MDA-MB-231) | GI50 (Malme-3M) | GI50 (NCI-H226) | GI50 (NCI/ADR-RES) | GI50 (OVCAR-8) | GI50 (RXF 393) | GI50 (SF-539) | GI50 (SK-MEL-28) | GI50 (SN12C) |
| --- | --- | --- | --- | --- | --- | --- | --- | --- | --- | --- | --- | --- | --- | --- | --- | --- | --- | --- | --- | --- |
| CC(=O)O[C@H]1C(=O)[C@@]2(C)[C@H]([C@H](OC(=O)c3ccccc3)[C@]3(O)C[C@H](OC(=O)[C@H](O)[C@@H](NC(=O)c4cccc(N=[N+]=[N-])c4)c4ccccc4)C(C)=C1C3(C)C)[C@]1(OC(C)=O)CO[C@@H]1C[C@@H]2O | 0.327 µM (active) | 0.0364 µM (active) | 1.07 µM (active) | 0.00331 µM (active) | 0.0208 µM (active) | 0.0634 µM (active) | < 0.0025 µM (active) | 0.0109 µM (active) | < 0.0025 µM (active) | < 0.0025 µM (active) | 0.00908 µM (active) | 0.0149 µM (active) | 0.00711 µM (active) | 0.00855 µM (active) | 8.32 µM (inactive) | 0.00798 µM (active) | 0.045 µM (active) | < 0.0025 µM (active) | 0.425 µM (active) | 0.0164 µM (active) |
| Cc1cc(S(=O)(=O)/N=C(\NN)Nc2ccc(Cl)cc2)c(S)cc1Cl | 3.06 µM (inactive) | 10.8 µM (inactive) | 19.9 µM (inactive) | 3.28 µM (inactive) | 4.35 µM (inactive) | 11.2 µM (inactive) | 3.03 µM (inactive) | 34.4 µM (inactive) | 1.17 µM (inactive) | 2.13 µM (inactive) | 8.65 µM (inactive) | 20.4 µM (inactive) | 16.9 µM (inactive) | 16 µM (inactive) | 2.71 µM (inactive) | 12.4 µM (inactive) | 28.6 µM (inactive) | 14.1 µM (inactive) | 21.6 µM (inactive) | 22.8 µM (inactive) |
| N#Cc1nc(C#N)n(C(=O)c2ccccc2)c1NC(=O)c1ccccc1 | > 100 µM (inactive) | > 100 µM (inactive) | > 100 µM (inactive) | > 100 µM (inactive) | > 100 µM (inactive) | > 100 µM (inactive) | > 100 µM (inactive) | > 100 µM (inactive) | > 100 µM (inactive) | > 100 µM (inactive) | > 100 µM (inactive) | > 100 µM (inactive) | > 100 µM (inactive) | > 100 µM (inactive) | > 100 µM (inactive) | > 100 µM (inactive) | > 100 µM (inactive) | > 100 µM (inactive) | > 100 µM (inactive) | > 100 µM (inactive) |
| C=C1C(=O)O[C@@H]2[C@H]1C[C@H](I)[C@@]1(C)CC[C@H](O1)[C@](C)(I)CCCC(C)[C@@H]2O (stereo not given in full) | 1.79 µM (inactive) | 7.23 µM (inactive) | 1.96 µM (inactive) | 0.384 µM (active) | 6.19 µM (inactive) | 12.2 µM (inactive) | 2.88 µM (inactive) | 1.54 µM (inactive) | 14.6 µM (inactive) | 2.37 µM (inactive) | 4.68 µM (inactive) | 4.22 µM (inactive) | 2.48 µM (inactive) | 1.91 µM (inactive) | 3.17 µM (inactive) | 2.96 µM (inactive) | 1.69 µM (inactive) | 2.02 µM (inactive) | 6.11 µM (inactive) | 4.98 µM (inactive) |
| N#Cc1nc(C#N)n(S(=O)(=O)c2ccccc2)c1NS(=O)(=O)c1ccccc1 | > 100 µM (inactive) | > 100 µM (inactive) | > 37.8 µM (inactive) | > 100 µM (inactive) | > 100 µM (inactive) | > 100 µM (inactive) | > 100 µM (inactive) | > 100 µM (inactive) | > 100 µM (inactive) | > 100 µM (inactive) | > 100 µM (inactive) | > 100 µM (inactive) | > 100 µM (inactive) | > 100 µM (inactive) | > 100 µM (inactive) | > 100 µM (inactive) | > 100 µM (inactive) | > 100 µM (inactive) | > 100 µM (inactive) | > 100 µM (inactive) |
| N#Cc1c(C#N)c(-c2ccco2)n(/N=C/c2ccco2)c1N | > 100 µM (inactive) | 22.8 µM (inactive) | > 100 µM (inactive) | > 100 µM (inactive) | 39 µM (inactive) | > 100 µM (inactive) | 52.8 µM (inactive) | 11.2 µM (inactive) | 17.4 µM (inactive) | > 100 µM (inactive) | > 100 µM (inactive) | 11.3 µM (inactive) | > 100 µM (inactive) | 18.8 µM (inactive) | 65.9 µM (inactive) | 23.3 µM (inactive) | 19.9 µM (inactive) | 23.9 µM (inactive) | – | 32.6 µM (inactive) |
| c1ccc(-c2csc3c2-n2cccc2C3N2CCCC2)cc1 (stereo not given) | > 100 µM (inactive) | 3.3 µM (inactive) | 72.3 µM (inactive) | 70.1 µM (inactive) | 95.3 µM (inactive) | 26.1 µM (inactive) | 43.8 µM (inactive) | 21 µM (inactive) | 62.1 µM (inactive) | 22.6 µM (inactive) | – | 35.6 µM (inactive) | 23.9 µM (inactive) | 85.1 µM (inactive) | > 100 µM (inactive) | 26.8 µM (inactive) | > 100 µM (inactive) | 36.4 µM (inactive) | 24.7 µM (inactive) | > 100 µM (inactive) |
| CC(C)(Cl)C(Br)CCC(C)(Br)C(Br)CBr (stereo not given) | 17.4 µM (inactive) | 22.3 µM (inactive) | – | 10.5 µM (inactive) | 19.6 µM (inactive) | 13.1 µM (inactive) | 16 µM (inactive) | 21.5 µM (inactive) | 21.5 µM (inactive) | 23 µM (inactive) | 17.7 µM (inactive) | 12.9 µM (inactive) | 17.4 µM (inactive) | 18.8 µM (inactive) | 17 µM (inactive) | 16.2 µM (inactive) | 22.1 µM (inactive) | 15.6 µM (inactive) | 17.2 µM (inactive) | 20 µM (inactive) |
| CC(=O)CC12NC(=O)N(C)N=C1N(C)C(=O)N(C)C2=O (stereo not given) | 74.6 µM (inactive) | > 100 µM (inactive) | > 100 µM (inactive) | 39.2 µM (inactive) | > 100 µM (inactive) | 82.8 µM (inactive) | 35.7 µM (inactive) | 95.1 µM (inactive) | > 100 µM (inactive) | 40.1 µM (inactive) | 73.5 µM (inactive) | 43 µM (inactive) | 13.4 µM (inactive) | > 100 µM (inactive) | 29.4 µM (inactive) | 32.1 µM (inactive) | 68.1 µM (inactive) | 25.7 µM (inactive) | 57.3 µM (inactive) | 33.1 µM (inactive) |
| N#CC1=C(N)OC2=C(CCCc3ccc([N+](=O)[O-])cc32)C1c1ccc(Cl)cc1 (stereo not given) | 4.59 µM (inactive) | 17.4 µM (inactive) | 4.11 µM (inactive) | 4.39 µM (inactive) | 8.51 µM (inactive) | 8.02 µM (inactive) | 3.3 µM (inactive) | 37 µM (inactive) | 17.1 µM (inactive) | 3.88 µM (inactive) | 16.4 µM (inactive) | 7.91 µM (inactive) | 11.3 µM (inactive) | 17 µM (inactive) | 6.28 µM (inactive) | 6.58 µM (inactive) | 4.68 µM (inactive) | 8.97 µM (inactive) | 25.8 µM (inactive) | 2.74 µM (inactive) |
| C/C(=N/NC(=S)Nc1ccccc1Cl)c1ccccn1 | 0.0402 µM (active) | 4.39 µM (inactive) | 0.0675 µM (active) | < 0.01 µM (active) | 1.06 µM (active) | 2.98 µM (inactive) | < 0.0129 µM (active) | 1.03 µM (active) | 8.53 µM (inactive) | < 0.01 µM (active) | < 0.0211 µM (active) | < 0.0164 µM (active) | 0.429 µM (active) | < 0.0401 µM (active) | 0.0914 µM (active) | 0.0206 µM (active) | 1.41 µM (inactive) | 1.11 µM (active) | 4.06 µM (inactive) | 0.129 µM (active) |
| O=C1Oc2ccccc2C1C/C(=N\Nc1ccccc1)c1ccccc1O (stereo not given) | 16.6 µM (inactive) | 28.6 µM (inactive) | 25.6 µM (inactive) | 62.1 µM (inactive) | 40.7 µM (inactive) | 34.8 µM (inactive) | 28.4 µM (inactive) | 25.6 µM (inactive) | 74.5 µM (inactive) | – | 50.8 µM (inactive) | 28.9 µM (inactive) | 41.3 µM (inactive) | 28.8 µM (inactive) | 20.8 µM (inactive) | 32.4 µM (inactive) | 53.7 µM (inactive) | 53 µM (inactive) | 33.7 µM (inactive) | 42 µM (inactive) |
| CCCN(CCCCC(NC(C)=O)C(=O)NCc1ccccc1)C(=O)N(CCCl)N=O (stereo not given) | 25.8 µM (inactive) | 75.7 µM (inactive) | > 79.8 µM (inactive) | 54.6 µM (inactive) | 27.2 µM (inactive) | > 58.9 µM (inactive) | 60.3 µM (inactive) | 43.8 µM (inactive) | 42.1 µM (inactive) | 65.2 µM (inactive) | 59.6 µM (inactive) | > 100 µM (inactive) | > 100 µM (inactive) | > 77.8 µM (inactive) | 31.6 µM (inactive) | > 89.7 µM (inactive) | 66.1 µM (inactive) | 8.55 µM (inactive) | > 100 µM (inactive) | 58.3 µM (inactive) |
| CC(=O)OCC1OC(NC(=S)Nn2c(=O)[nH]c3ccccc3c2=O)C(OC(C)=O)C(OC(C)=O)C1OC(C)=O (stereo not given) | > 100 µM (inactive) | > 100 µM (inactive) | > 100 µM (inactive) | 49.5 µM (inactive) | > 100 µM (inactive) | > 100 µM (inactive) | > 100 µM (inactive) | > 100 µM (inactive) | > 100 µM (inactive) | – | > 100 µM (inactive) | > 100 µM (inactive) | > 100 µM (inactive) | > 100 µM (inactive) | > 100 µM (inactive) | > 100 µM (inactive) | > 100 µM (inactive) | > 100 µM (inactive) | > 100 µM (inactive) | > 100 µM (inactive) |
